Data from patent EP1455790B1, “USE OF PYRIDINE-2,4-DICARBOXYLIC ACID DIAMIDES AND OF PYRIMIDINE-4,6-DICARBOXYLIC ACID DIAMIDES FOR SELECTIVE COLLAGENASE INHIBITION” (Sanofi-Aventis Deutschland GmbH, priority 2001, dated 2003).
Where two headings read alike, the source gives them in different places.

Biological target: T1, katalytischen Domäne der humanen Kollagenase -3(MMP-13) (Homo sapiens, UniProt P45452)
T1 construct: Die Enzymlösung enthält 1,67 µg/mL der Enzymdomäne; purchased INVITEK, Berlin 30100 803
Experiment: Enzymatic activity of the catalytic domain of human collagenase-3 (MMP-13), fluorogenic substrate
Format: biochemical
Procedure: Aktivierung des Proenzyms: 2 Volumenanteile Proenzym werden mit 1 Volumenanteil APMA-Lösung bei 37 °C für 1,5 Stunden inkubiert. Die APMA-Lösung wird aus einer 10 mmol/L p-Aminophenyl-Mercuric Acetate Lösung in 0,1 mmol/L NaOH durch Verdünnen mit 3 Volumenteile Tris/HCl Puffer pH7,5 (siehe unten) hergestellt. Der pH-Wert wird durch Zugabe von 1 mmol/L HCl zwischen 7;0 und 7,5 eingestellt. Nach der Aktivierung des Enzyms wird dieses mit dem Tris/HCl Puffer auf eine Konzentration von 1,67 µg/mL verdünnt.
Zur Messung der Enzymaktivität werden 10 µL Enzymlösung mit 10 µL einer 3%igen (v/v) gepufferten Dimethylsulfoxid-Lösung (Reaktion 1) für.15 Minuten inkubiert. Zur Messung der Enzyminhibitoraktivität werden 10 µL Enzymlösung mit 10 µL einer 3%igen (v/v) gepufferten Dimethylsulfoxid-Lösung, die den Enzyminhibitor enthält, inkubiert (Reaktion 2).
Die Enzymaktivität wird dargestellt als Extinktionszunahme/Minute. […] Die Pufferlösung enthält 0,05% Brij (Sigma, Deisenhofen, Deutschland) sowie 0,1 mol/L Tris/HCI, 0,1 mol/L NaCI, 0,01 mol/L CaCl2 (pH=7,5). Die Enzymlösung enthält 1,67 µg/mL der Enzymdomäne. Die Substratlösung enthält 0,75 mmol/L des fluorogenen Substrates (7-Methoxycoumarin-4-yl)acetyl-Pro-Leu-Gly-Leu-3-(2',4'-dinitrophenyl)-L-2,3-diaminopropionyl-Ala-Arg-NHz (Bachem, Heidelberg, Deutschland).

IC50 (catalytic domain, APMA-activated pro-enzyme, Tris/HCl buffer pH 7,5, read-out: IC50 MMP13) | SMILES | IC50 (comparative example, same method as Table 4, read-out: IC50-Wertes für die Inhibition der humanen Kollagenase -3 (MMP-13))
0.4 µM | O=C(NCc1ccccc1)c1cc(C(=O)NCc2ccccc2)ncn1 [Beispiel 1, Pyrimidin-4,6-dicarbonsäure-dibenzylamid] | 
 | CCNC(=O)c1cc(C(=O)NCC)ncn1 [Pyrimidin-4,6-dicarbonsäurediethylamid] | 90 µM
